Reference: patent US6544989B2, “Benzazoles: benzoxazole, benzthiazole and benzimidazole derivatives” (Syngenta Limited, priority 1998, dated 2003)

Key:
Musca domestica = details: 500 ppm by weight; knockdown assessed 15 minutes after treatment
Plasmopara viticola = test: Fungicidal test, Plasmopara viticola (PLASVI) on vines, PRCO; format: in vivo; details: METHOD 2 (unbanded)
Septoria nodorum = test: Fungicidal test, Septoria nodorum (LEPTNO) on wheat, PRCO; format: in vivo; details: METHOD 2 (unbanded)
Venturia inaequalis = test: Fungicidal test, Venturia inaequalis (VENTIN) on apples, PRCO; format: in vivo; details: METHOD 2 (unbanded)
Uncinula necator = test: Fungicidal test, Uncinula necator (UNCINE) on vines, PRCO; format: in vivo; details: METHOD 2 (unbanded)
Puccinia recondita = test: Fungicidal test, Puccinia recondita (PUCCRT) on wheat, PRCO; format: in vivo; details: METHOD 2 (unbanded)
Pyricularia oryzae = format: in vivo; details: METHOD 2 (unbanded)
[1] = test system: Erysiphe graminis f.sp. tritici; test: Fungicidal test, Erysiphe graminis f.sp. tritici (ERYSGT) on wheat, PRCO; format: in vivo; details: 1 d Prot/Foir; METHOD 2 (unbanded)
Meloidogyne incognita = test: Nematode test, J2 infective juveniles of Meloidogyne incognita, mortality; details: 12.5 ppm; J2 infective juveniles suspended in solution; mortality after three days
[2] = test system: Phytophthora infestans lycopersici; format: in vivo; details: METHOD 2 (unbanded)

| SMILES | MUSCDO AC = Musca domestica (knockdown), score (Musca domestica) | PLASVI 1 d Prot/Foir PRCO (Plasmopara viticola) | LEPTNO 1 d Prot/Foir PRCO (Septoria nodorum) | VENTIN 1 d Prot/Foir PRCO (Venturia inaequalis) | UNCINE 1 d Prot/Foir PRCO (Uncinula necator) | PUCCRT 1 d Prot/Foir PRCO (Puccinia recondita) | PYRIOR 1 d Prot/Foir PRCO (Pyricularia oryzae) | ERYSGT 1 d Prot/Foir PRCO [1] | MELGIN = Meloidogyne incognita, grading of mortality (score) (Meloidogyne incognita) | PHYTIN 1 d Prot/Foir PRCO [2] |
| --- | --- | --- | --- | --- | --- | --- | --- | --- | --- | --- |
| Cc1nsc(NC(=O)Cc2ccc3oc(-c4sccc4Cl)nc3c2)c1Cl [331(A3)] | 0 (0 indicates less than 40% mortality) | 49 | 17 | 5 | 76 | 95 | 81 | 33 |  |  |
| CCOCN(C(=O)Cc1ccc2oc(CC(C)(C)C)nc2c1)c1snc(C)c1Cl [15(L3)] | 9 (9 indicates 80-100% mortality) |  | 40 | −21 | 99 | 17 | 20 | 100 | 0 (0 indicates less than 40% mortality) | 97 |
| Cc1nsc(NC(=O)Cc2ccc3ocnc3c2)c1Cl [1(A3)] | 0 (0 indicates less than 40% mortality) | 6 |  | 25 | 43 | 59 | 91 | 88 | 5 (5 indicates 40-79% mortality) | 100 |
| Cc1cc(NC(=O)Cc2ccc3oc(CC(C)(C)C)nc3c2)sn1 [15(A1)] | 5 (5 indicates 40-79% mortality) |  | 4 | 54 | 100 | 96 | 87 | 43 | 0 (0 indicates less than 40% mortality) | 100 |
| Cc1nsc(NC(=O)Cc2ccc3oc(CC#N)nc3c2)c1Cl [113(A3)] | 0 (0 indicates less than 40% mortality) |  | 20 | 8 | 21 | 41 | 28 | 5 | 0 (0 indicates less than 40% mortality) | 38 |
| CCCCc1nc2cc(CC(=O)Nc3snc(C)c3Cl)ccc2o1 [5(A3)] | 0 (0 indicates less than 40% mortality) | 39 | 30 | −10 | 72 | 88 | 31 | 40 | 0 (0 indicates less than 40% mortality) | 100 |
| CCCN(C(=O)Cc1ccc2oc(CC(C)(C)C)nc2c1)c1snc(C)c1Cl [15(D3)] | 0 (0 indicates less than 40% mortality) |  | 70 | −14 | 100 | 25 | 27 | 55 | 0 (0 indicates less than 40% mortality) | 99 |
| COC(=O)CSc1nc2cc(CC(=O)Nc3snc(C)c3Cl)ccc2o1 [229(A3)] | 0 (0 indicates less than 40% mortality) |  | 2 | 10 | −9 | 6 | 55 | 21 | 0 (0 indicates less than 40% mortality) | 92 |
| Cc1nsc(NC(=O)Cc2ccc3oc(NC(C)(C)C)nc3c2)c1Cl [183(A3)] | 0 (0 indicates less than 40% mortality) |  | 19 | 98 | 98 | 99 | 99 | 99 | 0 (0 indicates less than 40% mortality) | 100 |
| CCN(C(=O)Cc1ccc2oc(CC(C)(C)C)nc2c1)c1snc(C)c1Cl [15(C3)] | 9 (9 indicates 80-100% mortality) |  | 93 | 64 | 100 | 13 | 7 | 38 | 0 (0 indicates less than 40% mortality) | 97 |
| Cc1nsc(NC(=O)Cc2ccc3oc(C(F)(F)C(F)(F)C(F)(F)F)nc3c2)c1Cl [80(A3)] | 0 (0 indicates less than 40% mortality) |  | −2 | −8 | 100 | 100 | 91 | 99 | 0 (0 indicates less than 40% mortality) | 45 |
| CCOc1nc2cc(CC(=O)Nc3snc(C)c3Cl)ccc2o1 [204(A3)] | 9 (9 indicates 80-100% mortality) |  | 67 | 22 | 81 | 99 | 96 | 87 | 0 (0 indicates less than 40% mortality) | 100 |
| Cc1nsc(NC(=O)Cc2ccc3oc(N4CCOCC4)nc3c2)c1Cl [191(A3)] | 5 (5 indicates 40-79% mortality) |  | 36 | 10 | 100 | 99 | 92 | 94 | 9 (9 indicates 80-100% mortality) | 92 |
| CSCCc1nc2cc(CC(=O)Nc3snc(C)c3Cl)ccc2o1 [172(A3)] | 5 (5 indicates 40-79% mortality) | 44 | 10 | 69 | 36 | 96 | 19 | 40 | 5 (5 indicates 40-79% mortality) | 100 |
| Cc1nsc(NC(=O)Cc2ccc3oc(CC4CC4)nc3c2)c1Cl [41(A3)] | 0 (0 indicates less than 40% mortality) |  | 77 | 50 | 91 | 98 | 33 | 59 | 0 (0 indicates less than 40% mortality) | 100 |
